Data on 25 molecules can be found in US12037322B2, “AHR agonists” (Eli Lilly and Company, priority 2021, dated 2024).

pEC50: −log10 of the molar value.

The assay concerns the target T1, hAHR (Homo sapiens, UniProt P35869).
T1 construct: expressed in transfected cells
T1 sequence (P35869 11-848): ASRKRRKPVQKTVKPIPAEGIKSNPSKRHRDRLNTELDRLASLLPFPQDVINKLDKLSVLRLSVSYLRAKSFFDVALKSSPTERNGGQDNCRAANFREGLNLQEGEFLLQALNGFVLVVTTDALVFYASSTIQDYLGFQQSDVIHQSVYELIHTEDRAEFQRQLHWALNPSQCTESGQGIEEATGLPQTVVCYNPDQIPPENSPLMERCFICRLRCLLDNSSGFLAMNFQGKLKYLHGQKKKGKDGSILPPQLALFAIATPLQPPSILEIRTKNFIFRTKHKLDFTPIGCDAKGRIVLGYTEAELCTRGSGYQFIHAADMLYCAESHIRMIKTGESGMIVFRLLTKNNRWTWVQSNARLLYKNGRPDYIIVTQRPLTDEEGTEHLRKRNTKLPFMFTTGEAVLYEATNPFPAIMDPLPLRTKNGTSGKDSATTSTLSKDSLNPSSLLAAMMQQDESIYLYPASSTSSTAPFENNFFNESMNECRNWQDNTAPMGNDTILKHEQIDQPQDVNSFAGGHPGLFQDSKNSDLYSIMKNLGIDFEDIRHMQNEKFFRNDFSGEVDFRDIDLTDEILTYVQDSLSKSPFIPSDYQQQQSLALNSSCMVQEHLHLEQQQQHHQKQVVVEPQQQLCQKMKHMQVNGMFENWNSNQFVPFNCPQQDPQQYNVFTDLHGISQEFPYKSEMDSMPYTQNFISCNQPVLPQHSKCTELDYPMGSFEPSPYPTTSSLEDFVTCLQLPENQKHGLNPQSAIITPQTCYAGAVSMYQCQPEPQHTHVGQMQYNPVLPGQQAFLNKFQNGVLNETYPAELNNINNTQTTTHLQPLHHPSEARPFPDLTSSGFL
In words: hAHR nuclear translocation assay. To be noted: Jump-In T-REx HEK293 cells expressing AhR-EGFP; 45 min incubation; ratio of EGFP intensity in nuclear over cytosol; 20-point curve. The assay is classed as cell-based. The procedure:
Stable cell lines were established using Jump-In™ T-REx™ HEK293 Retargeting Kit (Life Technologies). hAhR cDNA was cloned into the pJTI R4 CMV-TO EGFP vector. The EGFP was cloned to the C-terminal of AHR to form AhR-EGFP chimera. The pJTI R4 CMV-TO AhR-EGFP vector was transfected using FuGENE® HD into Jump-In™ T-REx™ HEK293 cells. Transfected cells were selected using 2.5 mg/ml G418 for 10 to 14 days, then expanded, harvested, and suspended in freeze media (FBS with 8% DMSO) at 2×10^7 cells/mL, and aliquots were stored in liquid nitrogen. One day before the assay date, cells were thawed and resuspended in DMEM with 5% FBS in the presence of 1 μg/mL Doxycycline and plated into ploy-L-Lysine coated […]-384 ULTRA Microplates (Perkin Elmer) at 12,000 to 15,000 cells per well and incubated at 37° C. and 5% CO2 overnight. On the assay date, compound was serially diluted (1:2) into 384-well nunc plates with DMSO using acoustic dispensing (ECHO). The dose response was a 20-point curve. Compound was resuspended in 40 μL of DMEM plus 0.1% BSA. The culture media was damped and 25 μL of DMEM plus 0.1% BSA was added, then 25 μL of compound in DMEM plus 0.1% BSA was added into cell plates. Cells were incubated with compounds at 37° C. and 5% CO2 for 45 min.
The final DMSO concentration was 0.2%. The media was damped after 45 minutes incubation. The cells were fixed with 40 μL of cold MeOH (−20° C.) for 20 min. The MeOH was damped and 50 μL of DPBS containing 1 μg/mL Hochst was added into the cell plates. The intensity of EGFP was quantitated by using OPERA PHENIX® or Operetta™ high content image system (Perkin Elmer) with 20× Water Objective and five field per well. The ratio of EGFP fluorescent intensity in nuclear over cytosol was analyzed using a 4-parameter nonlinear logistic equation to determine the potency of AhR agonists.

On to `CC1CCc2c1c(O)c(C(=O)Nc1ncco1)c(=O)n2C` (single isomer, unassigned) [Example 34, 4-Hydroxy-1,5-dimethyl-N-oxazol-2-yl-2-oxo-6,7-dihydro-5H-cyclopenta[b]pyridine-3-carboxamide], for which the pEC50 is 8.13.

With `CC1CCc2c1c(O)c(C(=O)Nc1ncco1)c(=O)n2C` (single isomer, unassigned) [Example 35, 4-Hydroxy-1,5-dimethyl-N-oxazol-2-yl-2-oxo-6,7-dihydro-5H-cyclopenta[b]pyridine-3-carboxamide], the pEC50 was 8.35.

As to `CC1CCc2c1c(O)c(C(=O)Nc1ccns1)c(=O)n2C` (single isomer, unassigned) [Example 36, 4-Hydroxy-N-isothiazol-5-yl-1,5-dimethyl-2-oxo-6,7-dihydro-5H-cyclopenta[b]pyridine-3-carboxamide], the pEC50 was 8.56.

With `CC1CCc2c1c(O)c(C(=O)Nc1ccns1)c(=O)n2C` (single isomer, unassigned) [Example 37, 4-Hydroxy-N-isothiazol-5-yl-1,5-dimethyl-2-oxo-6,7-dihydro-5H-cyclopenta[b]pyridine-3-carboxamide], the pEC50 was 8.71.

With `CC1CCc2c1c(O)c(C(=O)Nc1ccsn1)c(=O)n2C` (single isomer, unassigned) [Example 38, 4-Hydroxy-N-isothiazol-3-yl-1,5-dimethyl-2-oxo-6,7-dihydro-5H-cyclopenta[b]pyridine-3-carboxamide], the pEC50 was 9.00.

Turning to `CC1CCc2c1c(O)c(C(=O)Nc1ccsn1)c(=O)n2C` (single isomer, unassigned) [Example 39, 4-Hydroxy-N-isothiazol-3-yl-1,5-dimethyl-2-oxo-6,7-dihydro-5H-cyclopenta[b]pyridine-3-carboxamide], the pEC50 was 9.42.

Consider `CC1CCc2c1c(O)c(C(=O)Nc1cnsc1)c(=O)n2C` (single isomer, unassigned) [Example 40, 4-Hydroxy-N-isothiazol-4-yl-1,5-dimethyl-2-oxo-6,7-dihydro-5H-cyclopenta[b]pyridine-3-carboxamide], for which the pEC50 was 8.63.

For the molecule `CC1CCc2c1c(O)c(C(=O)Nc1cnsc1)c(=O)n2C` (single isomer, unassigned) [Example 41, 4-Hydroxy-N-isothiazol-4-yl-1,5-dimethyl-2-oxo-6,7-dihydro-5H-cyclopenta[b]pyridine-3-carboxamide], the pEC50 is 8.58.

As for `CC1CCc2c1cc(C(=O)Nc1ccc(F)cn1)c(=O)n2C` (single isomer, unassigned) [Example 56, N-(5-Fluoro-2-pyridyl)-1,5-dimethyl-2-oxo-6,7-dihydro-5H-cyclopenta[b]pyridine-3-carboxamide], the pEC50 was 8.61.

On to `CC1CCc2c1cc(C(=O)Nc1ccc(F)cn1)c(=O)n2C` (single isomer, unassigned) [Example 57, N-(5-Fluoro-2-pyridyl)-1,5-dimethyl-2-oxo-6,7-dihydro-5H-cyclopenta[b]pyridine-3-carboxamide], for which the pEC50 is 8.74.

Turning to `CC1CCc2c1cc(C(=O)Nc1ccc(C(F)(F)F)cn1)c(=O)n2C` (single isomer, unassigned) [Example 58, 1,5-Dimethyl-2-oxo-N-[5-(trifluoromethyl)-2-pyridyl]-6,7-dihydro-5H-cyclopenta[b]pyridine-3-carboxamide], the pEC50 was 8.44.

For `CC1CCc2c1cc(C(=O)Nc1ccc(C(F)(F)F)cn1)c(=O)n2C` (single isomer, unassigned) [Example 59, 1,5-Dimethyl-2-oxo-N-[5-(trifluoromethyl)-2-pyridyl]-6,7-dihydro-5H-cyclopenta[b]pyridine-3-carboxamide], the pEC50 is 8.44.

As to `CC1CCc2c1cc(C(=O)NC1CCCC1)c(=O)n2C` (single isomer, unassigned) [Example 60, N-Cyclopentyl-1,5-dimethyl-2-oxo-6,7-dihydro-5H-cyclopenta[b]pyridine-3-carboxamide], the pEC50 was 6.40.

As to `CC1CCc2c1cc(C(=O)NC1CCCC1)c(=O)n2C` (single isomer, unassigned) [Example 61, N-Cyclopentyl-1,5-dimethyl-2-oxo-6,7-dihydro-5H-cyclopenta[b]pyridine-3-carboxamide], the negative-log EC50 (pEC50) was 7.38.

Turning to `CC1CCc2c1cc(C(=O)Nc1nccs1)c(=O)n2C` (single isomer, unassigned) [Example 62, 1,5-Dimethyl-2-oxo-N-thiazol-2-yl-6,7-dihydro-5H-cyclopenta[b]pyridine-3-carboxamide], the pEC50 was 8.74.

Take `CC1CCc2c1cc(C(=O)Nc1nccs1)c(=O)n2C` (single isomer, unassigned) [Example 63, 1,5-Dimethyl-2-oxo-N-thiazol-2-yl-6,7-dihydro-5H-cyclopenta[b]pyridine-3-carboxamide]: the pEC50 was 8.59.

On to `CC1CCc2c1cc(C(=O)Nc1ncc(C(F)(F)F)cn1)c(=O)n2C` (single isomer, unassigned) [Example 64, 1,5-Dimethyl-2-oxo-N-[5-(trifluoromethyl)pyrimidin-2-yl]-6,7-dihydro-5H-cyclopenta[b]pyridine-3-carboxamide], for which the pEC50 is 8.81.

Regarding `CC1CCc2c1cc(C(=O)Nc1ncc(C(F)(F)F)cn1)c(=O)n2C` (single isomer, unassigned) [Example 65, 1,5-Dimethyl-2-oxo-N-[5-(trifluoromethyl)pyrimidin-2-yl]-6,7-dihydro-5H-cyclopenta[b]pyridine-3-carboxamide], the pEC50 was 8.91.

With `CC1CCc2c1cc(C(=O)Nc1ncccn1)c(=O)n2C` (single isomer, unassigned) [Example 80, 1,5-Dimethyl-2-oxo-N-pyrimidin-2-yl-6,7-dihydro-5H-cyclopenta[b]pyridine-3-carboxamide], the pEC50 was 7.96.

For the molecule `CC1CCc2c1cc(C(=O)Nc1ncccn1)c(=O)n2C` (single isomer, unassigned) [Example 82, 1,5-Dimethyl-2-oxo-N-pyrimidin-2-yl-6,7-dihydro-5H-cyclopenta[b]pyridine-3-carboxamide], the pEC50 was 7.60.

Regarding `CC1Cc2c(O)c(C(=O)Nc3ncccn3)c(=O)n(C)c2C1` (single isomer, unassigned) [Example 83, 4-Hydroxy-1,6-dimethyl-2-oxo-N-pyrimidin-2-yl-6,7-dihydro-5H-cyclopenta[b]pyridine-3-carboxamide], the pEC50 was 6.63.

Turning to `CC1Cc2c(O)c(C(=O)Nc3ncccn3)c(=O)n(C)c2C1` (single isomer, unassigned) [Example 84, 4-Hydroxy-1,6-dimethyl-2-oxo-N-pyrimidin-2-yl-6,7-dihydro-5H-cyclopenta[b]pyridine-3-carboxamide], the pEC50 is 8.06.

Turning to `CC1CCc2c1c(O)c(C(=O)Nc1ncccn1)c(=O)n2C` (single isomer, unassigned) [Example 85, 4-Hydroxy-1,5-dimethyl-2-oxo-N-pyrimidin-2-yl-6,7-dihydro-5H-cyclopenta[b]pyridine-3-carboxamide], the pEC50 is 8.39.

For `C[C@@H]1CCc2c1c(O)c(C(=O)Nc1ncccn1)c(=O)n2C` (single isomer, unassigned) [Example 86, 4-Hydroxy-1,5-dimethyl-2-oxo-N-pyrimidin-2-yl-6,7-dihydro-5H-cyclopenta[b]pyridine-3-carboxamide], the negative-log EC50 (pEC50) is 8.11.

Regarding `CC1Cc2c(O)c(C(=O)Nc3ccccn3)c(=O)n(C)c2C1` (single isomer, unassigned) [Example 87, 4-Hydroxy-1,6-dimethyl-2-oxo-N-(2-pyridyl)-6,7-dihydro-5H-cyclopenta[b]pyridine-3-carboxamide], the pEC50 was 7.56.
